Measurements taken from PMC4862498, “PI4 Kinase Is a Prophylactic but Not Radical Curative Target in Plasmodium vivax-Type Malaria Parasites” (Antimicrobial Agents and Chemotherapy, 2016).

How the values were obtained:
[1] = design: species or system CD-1 mice; conditions: mouse, in vivo
Description: (§1) Details of in vivo PK studies of KDU691 and LMV599 in CD-1 mice and monkeys can be found in the supplemental material.
Clinical chemistry and hematology
For the clinical analysis serum from 1 mL of clotted blood was analysed using the Cobas Integra 400 plus fully automated chemistry analyser. The following clinical parameters were determined: Alkaline phosphatase; Alanine Aminotransferase; Albumin: Aspartate aminotransfeasr; Bilirubin; Calcium; Cholesterol; Creatine kinase; Creatinine; C-reactive protein: Iron; Phosphate; Gamma-glutamyl transpeptidase; Glucose; Hemoglobin; Potassium; Lactate dehydrogenase; Sodium; Total protein; Urea Haematological parameters were determined from 1 mL EDTA-blood with a Sysmex XT-2000iV automated system. The following hematological parameters were determined: Basophilic granulocytes; Eosinophilic granulocytes; Erythrocytes; Hematocrit; Leucocytes; Leucocyte differentiation; Lymphocytes; Mean corpusculair hemoglobin; Mean corpusculair hemoglobin concentration; Mean corpusculair volume; Neutrophilic granulocytes; Red cell distribution width; Thrombocytes […]
For LC/MS/MS analysis, 50 µL of plasma samples were precipitated using 180 µL of acetonitrile:methanol:acetic acid (90:9.8:0.2) containing either related compound or warfarin as internal standard. After vortexing and centrifuging the mixture, the supernatant was removed and 5 µL of sample analyzed. […] In addition, quality control samples with three different concentrations were prepared in respective blank matrix and analyzed together with the unknown samples for validation purposes. Analyte quantitation was performed by LC/MS/MS using optimized conditions for each compound. […]
B), 3.92 – 4.0 min (85 – 35 % B) and 4.0 – 4.75 min (35 % B), with a flow rate of 1.0 mL/min, and a run time of 4.75 min. […] The most intense MRM transition (420.2/269) was used for quantitation using electrospray ionization in the positive mode. […]

[2] = design: species or system mice and monkeys; conditions: in vivo
Description: as §1
Pharmacokinetic analysis.
Mean values of compound concentrations in plasma and liver were obtained from three animals at each time point and plotted against time to generate concentration-time profiles. Pharmacokinetic parameters were determined using WinNonlin Professional, version 5.0.1 (Pharsight, California, USA), by non-compartmental modeling using software model 200 for oral dosing. The oral bioavailability (F) was calculated as the ratio between the area under the curve from 0 to infinity (AUCinf) following oral administration and the AUCinf following intravenous administration corrected for dose (F = AUCp.o. * dosei.v. / AUCi.v. * dosep.o.).
PK-PD relationship analysis.
The compound concentration that inhibited 50% of P. cynomolgi growth (IC50) was used to calculate the threshold (TRE = 3*IC50) and the PK-PD indices. The Cmax/TRE was defined as the ratio of peak plasma concentration (Cmax) to the threshold (3*IC50), the AUC0-24/TRE was defined as the ratio of area under the curve from 0 to 24 hours (AUC0-24) to the threshold, and the percent time over threshold (%T>TRE) was defined as the percentage of the 24 hour period during which the compound concentration exceeded the […]
Table S3: Monkey stratification for the in vivo testing of KDU691. […]

CNC(=O)c1ccc(-c2cnc3cnc(C(=O)N(C)c4ccc(Cl)cc4)cn23)cc1 [KDU691]
compound partitioning in the liver, Cmax over plasma [1]: 1.7 × | compound partitioning in the liver, exposure over plasma [1]: 3.1 × | F (oral bioavailability) ([1]; po, 25 mg/kg): 60% | oral bioavailability [2]: 52-66%
